Tests used:
[1] = system: person suspected of having sleep apnea syndrome (SAS); experiment: SpO2 at apnea or hypopnea state in a person suspected of having sleep apnea syndrome; assay type: in vivo, human; details: one tablet of orotic acid-containing throat candy at bedtime, oral absorption
Source text: A person suspected of having sleep apnea syndrome (SAS) ingested one tablet of the placebo throat candy manufactured in Example 3 at bedtime, and the maximum time of sleep apnea (a state in which breathing stops for 10 seconds of more) or hypopnea (a state in which ventilation by breathing falls to 50% or less for 10 seconds or more), which are detected with testing equipment for sleep apnea syndrome lent from a medical corporation Koshikai Ginza Yasue Clinic, and the SpO2 level at that time was measured two nights by the method in Example 1 (these levels are written by numerical numbers in the diagnostic results analyzed by the clinic software). The women then ingested one tablet of the orotic acid-containing throat candy manufactured in Example 3 at bedtime, and the maximum time of sleep apnea or hypopnea state and the SpO2 level at that time was measured by the same method as above two nights. In FIG. 6, the results in ingestion of one tablet of placebo throat candy are shown by round-shaped plots, and the results in ingestion of one tablet of orotic acid-containing throat candy are shown by diamond-shaped plots.

[2] = system: human subjects in normobaric hypoxic room (oxygen concentration 12.4 to 12.7%); experiment: SpO2 and heart rate in a normobaric hypoxic room before and after administration of orotic acid; assay type: in vivo
Description: A person (subject A) entered a normobaric hypoxic room (oxygen concentration: 12.4 to 12.7%, equivalent to that at an altitude of about 4000 m, 23° C.) of Miura Dolphins and was then administered with 400 mg of orotic acid by repeating twice a method (sublingual administration) in which a mixture (400 mg) of free form orotic acid (manufactured by Kyowa Hakko Bio Co., Ltd., 200 mg) and L-carnitine (manufactured by Lonza Japan Ltd., 200 mg) wrapped in wafer paper was placed under the tongue and allowed to stay in the mouth for at least 30 seconds, and the SpO2 and heart rate were measured using a pulse oximeter PULSOX-300i (manufactured by Konica Minolta, Inc.). Incidentally, in this example, carnitine was used for enhancing the solubility of orotic acid in water (absorbability into oral mucosa (see Japanese unexamined Patent Application Publication No. 2015-43743). Subject A was required not to consciously change their breathing after entering the room. Three subjects ([subject A: the same subject as that Example 1], [subject B], and [subject C]) were subjected to a test according to the method described in [Test method 1] above. Subject A was subjected to examination of swallowing (oral administration) two tablets each containing 200 mg of free form orotic acid monohydrate (manufactured by Kyowa Hakko Bio Co., Ltd.) (400 mg of orotic acid in total) for comparison with sublingual administration. In this test, the oxygen concentration in the room was stable within a range of 12.4% to 12.7% throughout the test period.

[3] = system: healthy women performing bike exercise; experiment: Change in energy consumption after bike exercise; assay type: in vivo, human; details: one tablet (200 mg) before exercise
Description: Six 22-year-old healthy women were divided into three groups of two. All the women were fasted for 24 hours (allowed only to drink water or tea), and two women of one group ingested one tablet of the orotic acid-containing throat candy (OA mouth-dissolving tablet), two women of another group ingested one tablet of the free form orotic acid monohydrate-containing tablets manufactured in Example 2 (OA tablet), and two women of the remaining group ingested one tablet of the placebo throat candy (non-ingestion), and the women performed bike exercise (exercise intensity: […]) for 30 minutes. Changes in energy consumption and changes in plasma uric acid level were measured at 2 hours, 3 hours, and 4 hours after completion of the exercise by the following measuring method. Exhalation was analyzed at immediately after completion of exercise and at 2 hours, 3 hours, and 4 hours after completion of exercise with AERO MONITOR AE 300S manufactured by Minato Medical Science Co., Ltd. Oxygen uptake volume and carbon dioxide production volume were measured, and the energy consumption (kcal/day) was determined by the following expression (1) to calculate the change in energy consumption. Energy consumption (kcal/day)=(3.9×oxygen uptake volume)+(1.1×carbon dioxide production volume) (1) Method for Measuring Change in Plasma Uric Acid Level

[4] = system: ddY male mice; experiment: Oxygen consumption during forced treadmill exercise in mice (reference example 2); assay type: in vivo, mouse; details: 5 times a week for 3 weeks
Description: In order to verify whether orotic acid has an effect of decreasing the oxygen consumption during exercise or not, the following test was performed. Twenty-four ddY male mice (6-week old) bred in a thermostatic animal chamber of 24±2° C. for one week or more under a light-dark cycle of 12 hours (lighting from 8:00 to 20:00) were prepared. These mice were divided into two groups. Each mouse in one group, CTL group, was administered with 0.5 mass % CMC solution in an amount of 10 mL per 1 kg of mouse body weight. Each mouse in the other group, OA group, was administered with 50 mg/mL of orotic acid suspended in 0.5 mass % CMC solution in an amount of 10 mL per 1 kg of mouse body weight. These administrations were performed 5 times a week for successive 3 weeks (15 times in total) for each mouse. Fasting of each mouse was started at 17:00 on the day of last administration. The mice were subjected to forced exercise using a mouse treadmill from 10:00 on the following day, and the oxygen consumption and the carbon dioxide production volume during exercise were measured. Incidentally, the forced exercise was performed for 30 minutes in total at a speed of 15 m/min for first 5 minutes, at a speed of 20 m/min for the following 5 minutes, and then at a speed of 25 m/min for 20 minutes. […] In addition, the respiratory quotient of each mouse was calculated as a value obtained by dividing the carbon dioxide production volume by the oxygen consumption.

[5] = system: ddY male mice; experiment: Oxygen consumption during non-exercise in mice (reference example 1); assay type: in vivo, mouse; details: 5 times a week for 4 weeks
Description: In order to verify whether orotic acid has an effect of decreasing the oxygen consumption during non-exercise or not, the following test was performed. Thirty-two ddY male mice (6-week old) bred in a thermostatic animal chamber of 24±2° C. for one week or more under a light-dark cycle of 12 hours (lighting from 8:00 to 20:00) were prepared. These mice were divided into two groups. Each mouse in one group (control group: CTL group) was administered with 0.5 mass % carboxymethyl cellulose solution (CMC solution) in an amount of 10 mL per 1 kg of mouse body weight. Each mouse in the other group (orotic acid administration group: OA group) was administered with orotic acid (50 mg/mL) suspended in 0.5 mass % CMC solution in an amount of 10 mL per 1 kg of mouse body weight. These administrations were performed 5 times a week for successive 4 weeks (20 times in total) for each mouse. Each mouse was transferred to a metabolism measurement chamber at 19:00 on the day of last administration to start fasting, and the oxygen consumption (VO2 [mL/min]) and carbon dioxide production volume (VCO2 [mL/min]) during the dark period from 20:00 to 8:00 on the following day were measured. […] In addition, the respiratory quotient (RER) of each mouse was calculated as a value obtained by dividing the carbon dioxide production volume by the oxygen consumption.

[6] = system: male ddY mice; experiment: Limit swimming time in mice (reference example 3); assay type: in vivo, mouse
Description: The endurance-enhancing effect was verified using orotic acid as a test substance. Seven-week old male ddY mice were purchased from Japan SLC, Inc. and were each acclimatized for 7 days and then forced to swim with a weight on the tail. When a mouse could not come up to the water surface and stayed under the surface of the water for 5 seconds, the time thereof was measured as the limit swimming time. The mice were divided into groups, such that there was no difference in limit swimming time between the groups, as follows: control group (CTL group, n=10), orotic acid 250 mg/kg administration group (OA 250 mg/kg group, n=10), and orotic acid 500 mg/kg administration group (OA 500 mg/kg group, n=10). The mice in each group were bred using roughage (CE-2), and the mice in OA 250 mg/kg group and OA 500 mg/kg group were orally administered with 250 mg/kg of orotic acid and 500 mg/kg of orotic acid, respectively, five times a week. After the grouping, the limit swimming time in each group was measured once a week while being bred for 3 weeks.

[7] = system: healthy women performing bike exercise; experiment: Change in plasma uric acid level after bike exercise (uricase-POD method); assay type: in vivo, human; details: non-ingestion group increase of 0.2 mg/dL
Description: Six 22-year-old healthy women were divided into three groups of two. All the women were fasted for 24 hours (allowed only to drink water or tea), and two women of one group ingested one tablet of the orotic acid-containing throat candy (OA mouth-dissolving tablet), two women of another group ingested one tablet of the free form orotic acid monohydrate-containing tablets manufactured in Example 2 (OA tablet), and two women of the remaining group ingested one tablet of the placebo throat candy (non-ingestion), and the women performed bike exercise (exercise intensity: […]) for 30 minutes. Changes in energy consumption and changes in plasma uric acid level were measured at 2 hours, 3 hours, and 4 hours after completion of the exercise by the following measuring method. The uric acid concentrations (mg/dL) at immediately after completion of exercise and at 4 hours after completion of exercise were determined by allowing peroxidase (POD) to act on hydrogen peroxide (H2O2), generated by oxidative decomposition of uric acid in a sample by the action of uricase, in the presence of 4-aminoantipyrine (4-AA) and a color former for oxidative condensation to generate a quinone dye (uricase-POD method). The resulting quinone dye is colorimetrically measured to calculate the change in plasma uric acid level.

Compound: O=C(O)c1cc(=O)[nH]c(=O)[nH]1 [orotic acid]
- SpO2 level at the same apnea time, compared with no orotic acid (placebo throat candy) [1]: higher than that when orotic acid was not ingested
- heart rate ([2]; subject A, 400 mg oral): did not have a considerable irregularity in heart rate
- sense of discomfort felt to be caused by hypoxia ([2]; subject A, 400 mg oral): merely slightly improved
- recovery of SpO2 level after oral administration ([2]; subject A, 400 mg oral (two swallowed tablets of free form orotic acid monohydrate), SpO2 decreased to 84%): hardly recovered
- SpO2 level about 30 minutes after sublingual administration ([2]; subject A, 400 mg orotic acid sublingual (mixed with L-carnitine, in wafer paper), SpO2 83% to 84% before administration): 88%
- SpO2 level stably maintained until leaving the room ([2]; subject A, 400 mg sublingual): about 88%
- heart rate ([2]; subject A, 400 mg sublingual): no considerable irregularity in heart rate
- sense of discomfort felt to be caused by hypoxia ([2]; subject A, 400 mg sublingual): disappeared soon after ingestion of orotic acid
- time for which the increased SpO2 level was stably maintained ([2]; subject A, 400 mg sublingual, until leaving the room): at least 5 hours
- heart rate before and after administration ([2]; subject B, 400 mg sublingual): hardly changed
- symptoms such as light sleepiness and reduced concentration ([2]; subject B, 400 mg sublingual): cancelled
- SpO2 level recovered after sublingual administration ([2]; subject B, 400 mg sublingual, SpO2 82% before, increased at about 30 minutes after administration): 86%
- symptoms of altitude sickness, such as headache and bad feeling ([2]; subject C, 200 mg sublingual): disappeared
- SpO2 level recovered after sublingual administration ([2]; subject C, 200 mg sublingual at 2 hours and 40 minutes after entering the room): higher than 80%
- recovery of SpO2 level ([2]; subject C, 400 mg swallowed before dissolution of wafer paper (same as oral administration), SpO2 decreased to 70%): no recovery in the SpO2 level was observed
- decrease in energy consumption at 2, 3 and 4 hours after bike exercise compared to immediately after exercise ([3]; oral absorption as throat candy): remarkable compared to that when orotic acid was ingested by oral administration
- energy consumption at 2, 3 and 4 hours after bike exercise compared to immediately after exercise ([3]; oral administration): decreased
- carbon dioxide production volume (VCO2) compared to control group [4]: significantly decreased
- respiratory quotient (RER) compared to control group [4]: not a significant difference
- oxygen consumption (VO2) compared to control group ([4]; orotic acid 50 mg/mL suspension 10 mL/kg): significantly decreased
- respiratory quotient (RER) compared to control group [5]: not a significant difference
- carbon dioxide production volume (VCO2) compared to control group ([5]; dark period): significantly decreased
- oxygen consumption (VO2) compared to control group ([5]; dark period, orotic acid 50 mg/mL suspension 10 mL/kg): significantly decreased
- effect of oral administration on the day of administration or within one week ([6]; experiments using mice, oral administration, at least three weeks needed for a significant difference): not observed
- limit swimming time ([6]; oral 250 mg/kg and 500 mg/kg, five times a week, 3 weeks): prolonged depending on the dose of orotic acid
- change of uric acid concentration between immediately after exercise and 4 hours after exercise (decrease) ([7]; orotic acid ingested by oral absorption as throat candy): 0.05 mg/dL
- change of uric acid concentration between immediately after exercise and 4 hours after exercise (increase) ([7]; orotic acid ingested by oral administration): 0.1 mg/dL

Reference: patent US11331318B2, “Arterial oxygen saturation degree improver” (FURUKAWA RESEARCH OFFICE CO., LTD., priority 2017, dated 2022)
